Assay results taken from patent EP4541351A1, “COMPOUNDS AND COMBINATION AS STIMULATORS OF COLLAGEN SYNTHESIS” (Center for Intelligent Research in Crystal Engineering, S.L., priority 2023, dated 2025).

Assays:
[1] = test system: Immortalized Human Gingival Fibroblasts-hTERT (iHGF); assay: Total collagen deposition (Sirius red staining) after UVA irradiation; format: cell-based; conditions: 7 days after irradiation and treatment
Protocol: Collagen deposition was determined according to Walsh et al 1992. […] Collagen was stained with Sirius red F3BA 0.1% in saturated picric acid for 1 hour. Unbound dye was removed by washing with 10 mM HCl, and dye was solubilized with 100 mM NaOH. Absorbance was measured with a microplate reader at 540 nm. Non-treated cells were set as 100%.

[2] = test system: Immortalized Human Gingival Fibroblasts-hTERT (iHGF); assay: Metabolic activity (PrestoBlue cell viability) after UVA irradiation; conditions: 24 h after irradiation and after 7 days of culture and treatment
Protocol: Immortalized Human Gingival Fibroblasts-hTERT (iHGF) (Applied Biological Materials Inc) were used for the experiments. Cells were grown at 37 °C in an atmosphere of 5% CO2 using complete fibroblast cell culture medium that consists in Dulbecco's modified Eagle's medium (DMEM) low glucose (Biowest)/Ham's F12 (3/1) (Biowest), supplemented with 10% (v/v) fetal bovine serum embryonic stem cells tested (FBS) (Biowest), 100 g/mL penicillin and 100 g/mL streptomycin (Biowest).
iHGF were seeded (7 000 cells/well) in 96-well plates (white and transparent tissue culture test-plates) and at confluence, cells were treated with different concentrations (0.1; 1; 10; 50; 75 and 100 µM) of Pteroyouth®, pterostilbene or silybin in complete fibroblast cell culture medium as described above. […] To measure cell viability, cell culture media and treatments were added again to the cells and metabolic activity was measured 24 h after irradiation. […] Cell viability was determined again at day 7, and cell monolayer was used to quantify collagen deposition. […]
Total metabolic activity was evaluated using the PrestoBlue™ Cell Viability Reagent (Invitrogen, Catalog Number A13261; Life Technologies, Carlsbad, CA, USA), which is used to measure the metabolic activity of cells, being an indicator of their overall health and functionality. […]

SMILES | total collagen deposition compared to both C and CuVA ([1]; 1 µM) | metabolic activity (cell viability) ([2]; 0.1 µM) | metabolic activity (cell viability) ([2]; 1 µM) | total collagen deposition compared to both C and CuVA ([1]; 0.1 µM) | total collagen deposition compared to both C and CuVA ([1]; 10 µM)
COc1cc(/C=C/c2ccc(O)cc2)cc(OC)c1 [pterostilbene, trans-3,5-dimethoxy-4-hydroxystilbene] | higher collagen deposition | maintain cell viability | maintain cell viability |  | 
COc1cc(C2Oc3cc([C@H]4Oc5cc(O)cc(O)c5C(=O)[C@@H]4O)ccc3OC2CO)ccc1O (stereo partly drawn) [silybin] | higher collagen deposition |  |  | higher collagen deposition | higher collagen deposition
